Test results from PubChem BioAssay (NCI).
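Test compounds were applied to cells in 96-well plates for 48 hours at 5 doses. TGI denotes the concentration required for complete inhibition of growth.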

Assays:
Experiment in all cases: NCI-60 cell line screen, 48 h
[1] = test system: UACC-257 melanoma
[2] = test system: CCRF-CEM leukemia
[3] = test system: UACC-62 melanoma
[4] = test system: HL-60(TB) leukemia
[5] = test system: MDA-MB-231 breast
[6] = test system: OVCAR-8 ovarian
[7] = test system: OVCAR-3 ovarian
[8] = test system: MCF7 breast
[9] = test system: IGROV1 ovarian
[10] = test system: M14 melanoma
[11] = test system: NCI-H460 lung
[12] = test system: SK-OV-3 ovarian
[13] = test system: SF-268 CNS
[14] = test system: DU-145 prostate
[15] = test system: HCT-15 colon
[16] = test system: PC-3 prostate
[17] = test system: UO-31 renal
[18] = test system: K-562 leukemia
[19] = test system: RPMI-8226 leukemia
[20] = test system: RXF 393 renal
[21] = test system: A549 NSCLC
[22] = test system: NCI-H522 lung
[23] = test system: SF-539 CNS
[24] = test system: MDA-MB-435
[25] = test system: T-47D breast
[26] = test system: HOP-62 NSCLC
[27] = test system: SF-295 CNS
[28] = test system: SW-620 colon
[29] = test system: HCC-2998 colon
[30] = test system: OVCAR-4 ovarian
[31] = test system: HT29 colon
[32] = test system: COLO 205 colon
[33] = test system: EKVX NSCLC
[34] = test system: SNB-75 CNS
[35] = test system: SNB-19 CNS
[36] = test system: MOLT-4 leukemia
[37] = test system: 786-0 renal
[38] = test system: LOX IMVI melanoma
[39] = test system: U251 CNS
[40] = test system: NCI-H23 lung
[41] = test system: CAKI-1 renal
[42] = test system: A498 renal
[43] = test system: SR leukemia
[44] = test system: MALME-3M melanoma
[45] = test system: ACHN renal
[46] = test system: SK-MEL-5 melanoma
[47] = test system: HOP-92 NSCLC
[48] = test system: SN12C renal
[49] = test system: TK-10 renal
[50] = test system: NCI-H226 lung
[51] = test system: SK-MEL-2 melanoma
[52] = test system: OVCAR-5 ovarian
[53] = test system: HS 578T breast
[54] = test system: SK-MEL-28 melanoma
[55] = test system: HCT-116 colon
[56] = test system: KM12 colon
[57] = test system: NCI/ADR-RES ovarian
[58] = test system: MDA-N

Measured: TGI

CC(C(O)c1ccccc1)C(O)(C(F)(F)F)C(F)(F)F (centres undefined)
> 100 µM: all assays above

COI1NC(=O)c2ccccc21
not listed: [1] | [11] | [20] | [23] | [25] | [29] | [41]
> 100 µM: all other assays above
